Measured values taken from patent US7825151B2, “Hexahydro-cyclooctyl pyrazole cannabinoid modulators” (priority 2005, dated 2010).
Several values for one entry are separate records, joined by “and”; a condition that tells them apart may be missing. Equal values may be shown once. Read-outs that look alike come from different tables or passages of the source.

How the values were obtained:
human CB1 receptor [1] = target: T1, human CB1 receptor (Homo sapiens, UniProt P21554); assay: Functional cell-based CRE β-gal assay, CB1 (adenylate cyclase activity)
T1 construct: expressed in transfected cells; host or cells: SK-N-MC cells, stably transfected with pcDNA3 CB-1 (human)
Excerpt: (§1) The CB1 and CB2 receptors are G-protein coupled receptors (GPCR), which influence cell function via the Gi-protein. These receptors modulate the activity of intracellular adenylate cyclase, which in turn produces the intracellular signal messenger cyclic-AMP (cAMP).
(§2) At baseline, or during non-ligand bound conditions, these receptors are constitutively active and tonically suppress adenylate cyclase activity. The binding of an agonist causes further receptor activation and produces additional suppression of adenylate cyclase activity. The binding of an inverse agonist inhibits the constitutive activity of the receptors and results in an increase in adenylate cyclase activity.
(§3) By monitoring intracellular adenylate cyclase activity, the ability of compounds to act as agonists or inverse agonists can be determined.
(§4) Test compounds were evaluated in SK-N-MC cells which, using standard transfection procedures, were stably transfected with human cDNA for pcDNA3-CRE β-gal and pcDNA3 CB1 receptor (human) or pcDNA3 CB2 receptor (human). By expressing CRE β-gal, the cells produced β-galactosidase in response to CRE promoter activation by cAMP. Cells expressing CRE β-gal and either the human CB1 or CB2 receptor will produce less β-galactosidase when treated with a CB1/CB2 agonist and will produce more β-galactosidase when treated with a CB1/CB2 inverse agonist.
(§5) The cells were grown in 96-well plates under standard cell culture conditions at 37° C. in a 5% CO2 atmosphere. After 3 days, the media was removed and a test compound in media (wherein the media was supplemented with 2 mM L-glutamine, […] sodium pyruvate, 0.1% low fatty acid FBS (fetal bovine serum) and antibiotics) was added to the cell. The plates were incubated for 30 minutes at 37° C. and the plate cells were then treated with forskolin over a 4-6 hour period, then washed and lysed. The β-galactosidase activity was quantitated using commercially available kit reagents (Promega Corp. Madison, Wis.) and a Vmax Plate Reader (Molecular Devices, Inc).
(§6) The change in β-galactosidase activity was determined by setting a vehicle treated cell's activity value at 100% and expressing the β-galactosidase activity measured in a corresponding compound treated cell as a percent of the vehicle treated cell activity.
The EC50 value for functional activity for compounds tested was calculated by linear regression and was obtained from studies in which varying compound concentrations were used. Data provided for certain compounds is represented by percent change (%) in functional activity at a single test concentration: ^(1)10 μM and ^(2)1 μM.

CB2 receptor [2] = target: T2, CB2 receptor (Homo sapiens, UniProt P34972); assay: Functional cell-based CRE β-gal assay, CB2 (adenylate cyclase activity)
T2 construct: expressed in transfected cells; host or cells: SK-N-MC cells, stably transfected with pcDNA3 CB-2 (human)
Excerpt: as §1, §2, §3, §4, §5
For cells expressing CRE β-gal and the CB2 receptor, CB2 agonists reduced β-galactosidase activity in a dose-dependent manner and CB2 inverse agonists increase β-galactosidase activity in a dose-dependent manner.
as §6
The EC50 value for functional activity for compounds tested was calculated by linear regression and was obtained from studies in which varying compound concentrations were used.
The value of 29% for Compound 5 represents change in functional activity and was obtained from a study in which one compound concentration was used.

human CB1 receptor [3] = target: T1, human CB1 receptor; assay: Binding assay for CB1 ([3H]-CP-55,940 displacement, SK-N-MC membranes); conditions: for IC50: Cannabinoid CB1 Receptor Binding IC50, radioligand CP-55,940 0.2 nM, SK-N-MC membranes; for inhibition at 0.2 µM: test concentration 0.2 μM (footnote 3)
Method: (§7) The human CB1 and CB2 receptors were stably expressed in SK-N-MC cells transfected with pcDNA3 CB-1 (human) or pcDNA3 CB-2 (human). The cells were grown in T-180 cell culture flasks under standard cell culture conditions at 37° C. in a 5% CO2 atmosphere. The cells were harvested by trysinization and homogenized in a homogenization buffer (10 mM Tris, 0.2 mM MgCl2, 5 mM KCl, with protease inhibitors aprotinin, leupeptin, pepstatin A and bacitracin) and centrifuged (2000 g). The supernatant was then centrifuged in 2M sucrose (31,300 g) to produce a semi-purified membrane pellet. The pellet was resuspended in homogenization and stored at −80° C.
(§8) On the day of the assay, the pellet was thawed on ice and diluted in assay buffer (50 mM Tris-HCl, 5 mM MgCl2, 2.5 mM EDTA, 0.5 mg/mL fatty acid free bovine serum albumin, pH 7.5). The diluted membrane pellet was added with buffer, either a test compound or vehicle standard and the radioligand [H]^3+-CP-55,940 (0.2 nM) to the wells of a 96-well polypropylene plate. Non-specific binding was measured in wells containing WIN 55,212 (10 uM). The plate was covered and incubated for 90 minutes at 30° C. The contents were then aspirated onto a Packard Unifilter GF/C filter bottom plate prewet with 0.5% polyethyleneimine. The wells of the polypropylene plate were rinsed and aspirated seven times with a 0.9% saline-0.5% Tween 20 solution. The Unifilter plate was dried, scintillation cocktail was added to each well and the counts representing binding were quantitated in a TopCount scintillation counter.
(§9) For compounds tested, an IC50 binding value was obtained from percent inhibition studies in which various test concentrations were used. The binding value was calculated by linear regression.
(§10) For compounds without an IC50 binding value, the percent inhibition (%) was obtained at a test concentration of ^(1)10 μM, ^(2)1 μM, ^(3)0.2 μM, ^(4)0.003 μM, ^(5) represents an average value.

CB2 receptor [4] = target: T2, CB2 receptor; assay: Binding assay for CB2 ([3H]-CP-55,940 displacement, SK-N-MC membranes)
Method: as §7, §8, §9, §10

[5] = read-out: CB2 receptor binding percent inhibition
[6] = read-out: CB1 receptor binding percent inhibition
[7] = test concentration 0.2 μM (footnote 3), read-out: CB2 receptor binding percent inhibition

T2 sequence (P34972 whole entry): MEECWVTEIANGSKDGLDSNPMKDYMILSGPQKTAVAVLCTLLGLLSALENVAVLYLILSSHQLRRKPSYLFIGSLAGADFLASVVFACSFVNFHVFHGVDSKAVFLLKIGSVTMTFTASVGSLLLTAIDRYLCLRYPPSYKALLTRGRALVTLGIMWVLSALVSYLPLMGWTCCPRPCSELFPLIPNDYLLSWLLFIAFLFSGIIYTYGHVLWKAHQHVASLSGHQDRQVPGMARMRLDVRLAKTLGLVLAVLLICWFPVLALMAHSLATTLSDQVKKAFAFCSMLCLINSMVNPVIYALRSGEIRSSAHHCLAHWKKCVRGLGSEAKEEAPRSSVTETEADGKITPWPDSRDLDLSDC
T1 sequence (P21554 whole entry): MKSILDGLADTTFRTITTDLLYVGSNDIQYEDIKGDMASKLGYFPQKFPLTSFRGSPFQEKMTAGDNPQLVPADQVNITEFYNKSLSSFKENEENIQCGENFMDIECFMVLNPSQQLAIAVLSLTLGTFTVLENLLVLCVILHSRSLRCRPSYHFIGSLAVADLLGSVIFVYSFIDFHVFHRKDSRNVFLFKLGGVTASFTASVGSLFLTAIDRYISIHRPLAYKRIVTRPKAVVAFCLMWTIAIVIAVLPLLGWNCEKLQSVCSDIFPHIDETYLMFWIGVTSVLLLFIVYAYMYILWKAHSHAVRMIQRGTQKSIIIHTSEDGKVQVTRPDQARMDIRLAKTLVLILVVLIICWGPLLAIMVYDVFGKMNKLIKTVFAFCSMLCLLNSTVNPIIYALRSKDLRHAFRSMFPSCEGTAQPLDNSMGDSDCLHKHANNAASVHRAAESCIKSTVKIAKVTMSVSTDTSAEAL

| SMILES | EC50 (human CB1 receptor [1]) | EC50 (CB2 receptor [2]) | IC50 (human CB1 receptor [3]) | inhibition at 0.2 µM (human CB1 receptor [3]; [6]) | other results |
| --- | --- | --- | --- | --- | --- |
| O=C(N[C@H](CO)c1ccccc1)c1n[nH]c2c1CCCCC[C@@H]2Cc1cccc(Cl)c1 (relative stereo) [Cpd 24, (9R*)-(3-chloro-benzyl)-4,5,6,7,8,9-hexahydro-1H-cyclooctapyrazole-3-carboxylic acid [(1S)-2-hydroxy-1-phenyl-ethyl]-amide] | > 5000 nM | 124 nM | – | – | – |
| O=C(N[C@H](CO)c1ccccc1)c1n[nH]c2c1CCCCC[C@H]2Cc1cccc(Cl)c1 (relative stereo) [Cpd 25, (9S*)-(3-chloro-benzyl)-4,5,6,7,8,9-hexahydro-1H-cyclooctapyrazole-3-carboxylic acid [(1S)-2-hydroxy-1-phenyl-ethyl]-amide] | > 5000 nM | 14 nM | – | – | – |
| COC[C@H](NC(=O)c1n[nH]c2c1CCCCC[C@H]2Cc1cccc(Cl)c1)c1ccccc1 (relative stereo) [Cpd 26, (9S*)-(3-chloro-benzyl)-4,5,6,7,8,9-hexahydro-1H-cyclooctapyrazole-3-carboxylic acid [(1R)-2-methoxy-1-phenyl-ethyl]-amide] | 70 nM | 5 nM | – | – | – |
| COC[C@H](NC(=O)c1n[nH]c2c1CCCCC[C@@H]2Cc1cccc(Cl)c1)c1ccccc1 (relative stereo) [Cpd 27, (9R*)-(3-chloro-benzyl)-4,5,6,7,8,9-hexahydro-1H-cyclooctapyrazole-3-carboxylic acid [(1R)-2-methoxy-1-phenyl-ethyl]-amide] | 43 nM | 26 nM | – | – | – |
| O=C(N[C@@H](CO)c1ccccc1)c1n[nH]c2c1CCCCCC2Cc1cccc(Cl)c1 (stereo in doubt) [Cpd 23, (9R*)-(3-chloro-benzyl)-4,5,6,7,8,9-hexahydro-1H-cyclooctapyrazole-3-carboxylic acid [(1R)-2-hydroxy-1-phenyl-ethyl]-amide] | – | – | – | – | EC50 (human CB1 receptor [1]; SK-N-MC cells, CRE β-gal, forskolin, agonist, read-out: CB1 Receptor Functional Agonist Activity EC50): 88 nM; EC50 (CB2 receptor [2]; SK-N-MC cells, CRE β-gal, forskolin, agonist, read-out: CB2 Receptor Functional Agonist Activity EC50): 11 nM |
| CCOC(=O)C1(NC(=O)c2nn(C3CCCCC3)c3c2CCCCCC3)CC2CCC1C2 (stereo not drawn) [Cpd 4, 2-[(1-cyclohexyl-4,5,6,7,8,9-hexahydro-1H-cyclooctapyrazole-3-carbonyl)-amino]-bicyclo[2.2.1]heptane-2-carboxylic acid ethyl ester] | – | – | 60 nM | – | inhibition at 0.003 µM (CB2 receptor [4]; [5]): 74%; CB1 receptor percent change in functional activity (human CB1 receptor [1]; single test concentration 1 μM (footnote 2)): ^(2)−71% |
| CC(NC(=O)c1nn(C2CCCCC2)c2c1CCCCCC2)C12CC3CC(CC(C3)C1)C2 (stereo not drawn) [Cpd 6, 1-cyclohexyl-4,5,6,7,8,9-hexahydro-1H-cyclooctapyrazole-3-carboxylic acid (1-adamantan-1-yl-ethyl)-amide] | – | 29 nM | 300 nM | – | inhibition at 1 µM (human CB1 receptor [3]; test concentration 1 μM (footnote 2), read-out: CB1 receptor binding percent inhibition): 86%; IC50 (CB2 receptor [4]; Cannabinoid CB2 Receptor Binding IC50, radioligand CP-55,940 0.2 nM, SK-N-MC membranes): 0.6 nM and 0.7 nM; inhibition at 1 µM (CB2 receptor [4]; [5]): 91% |
| O=C(NNc1ccc(Cl)cc1Cl)c1nn(-c2ccc(Cl)cc2Cl)c2c1CCCCC/C2=C\c1ccc(F)cc1 [Cpd 11, (9E)-1-(2,4-dichloro-phenyl)-9-(4-fluoro-benzylidene)-4,5,6,7,8,9-hexahydro-1H-cyclooctapyrazole-3-carboxylic acid N'-(2,4-dichloro-phenyl)-hydrazide] | – | – | – | 56% | inhibition at 0.2 µM (CB2 receptor [4]; [7]): 30% |
| C[C@@H](NC(=O)c1nn(-c2ccc(Cl)cc2Cl)c2c1CCCCC/C2=C\c1ccc(F)cc1)c1ccccc1 [Cpd 12, (9E)-1-(2,4-dichloro-phenyl)-9-(4-fluoro-benzylidene)-4,5,6,7,8,9-hexahydro-1H-cyclooctapyrazole-3-carboxylic acid [(1R)-1-phenyl-ethyl]-amide] | 10 nM | – | 8 nM | 89% | inhibition at 0.2 µM (CB2 receptor [4]; [5]): 18% |
| C[C@@H](NC(=O)c1nn(-c2ccc(Cl)cc2Cl)c2c1CCCCC/C2=C\c1ccc(F)cc1)c1ccccn1 [Cpd 13, (9E)-1-(2,4-dichloro-phenyl)-9-(4-fluoro-benzylidene)-4,5,6,7,8,9-hexahydro-1H-cyclooctapyrazole-3-carboxylic acid [(1R)-1-pyridin-2-yl-ethyl]-amide] | 2 nM | – | 8 nM | 90% | inhibition at 0.2 µM (CB2 receptor [4]; [5]): 11% |
| O=C(c1nn(-c2ccc(Cl)cc2Cl)c2c1CCCCC/C2=C\c1ccc(F)cc1)N1CCCCC1 [Cpd 14, (9E)-[1-(2,4-dichloro-phenyl)-9-(4-fluoro-benzylidene)-4,5,6,7,8,9-hexahydro-1H-cyclooctapyrazol-3-yl]-piperidin-1-yl-methanone] | – | – | – | 50% | inhibition at 0.2 µM (CB2 receptor [4]; [7]): 28% |
| C[C@@H](NC(=O)c1nn(-c2ccc(Cl)cc2Cl)c2c1CCCCC/C2=C\c1ccc(F)cc1)C1CCCCC1 [Cpd 17, (9E)-1-(2,4-dichloro-phenyl)-9-(4-fluoro-benzylidene)-4,5,6,7,8,9-hexahydro-1H-cyclooctapyrazole-3-carboxylic acid [(1R)-1-cyclohexyl-ethyl]-amide] | 40 nM | – | 10 nM | 86% | inhibition at 0.2 µM (CB2 receptor [4]; [5]): 25% |
| O=C(NN1CC2CCCC2C1)c1nn(-c2ccc(Cl)cc2Cl)c2c1CCCCC/C2=C\c1ccc(F)cc1 (stereo not drawn) [Cpd 18, (9E)-1-(2,4-dichloro-phenyl)-9-(4-fluoro-benzylidene)-4,5,6,7,8,9-hexahydro-1H-cyclooctapyrazole-3-carboxylic acid (hexahydro-cyclopenta[c]pyrrol-2-yl)-amide] | 20 nM | – | 50 nM | – | – |
| COc1ccc([C@H](C)NS(=O)(=O)/C=C/c2n[nH]c3c2CCCCCC3Cc2cccc(Cl)c2)cc1 (stereo partly drawn) [Cpd 20, (2E)-[9-(3-chloro-benzyl)-4,5,6,7,8,9-hexahydro-1H-cyclooctapyrazol-3-yl]-ethenesulfonic acid [(1S)-1-(4-methoxy-phenyl)-ethyl]-amide] | > 5000 nM | ≥ 5000 nM | – | – | – |
| C[C@H](NS(=O)(=O)/C=C/c1n[nH]c2c1CCCCCC2Cc1cccc(Cl)c1)c1ccccc1 (stereo partly drawn) [Cpd 21, (2E)-[9-(3-chloro-benzyl)-4,5,6,7,8,9-hexahydro-1H-cyclooctapyrazol-3-yl]-ethenesulfonic acid [(1S)-1-phenyl-ethyl]-amide] | > 5000 nM | 347 nM | – | – | – |
| O=C(NC(CO)c1ccccc1)c1n[nH]c2c1CCCCCC2Cc1cccc(Cl)c1 [Cpd 22, (9S*)-(3-chloro-benzyl)-4,5,6,7,8,9-hexahydro-1H-cyclooctapyrazole-3-carboxylic acid [(1R)-2-hydroxy-1-phenyl-ethyl]-amide] | 114 nM | 3 nM | – | – | – |
